Where two headings read alike, the source gives them in different places.
Key:
NOD2 [1] = target: T1, NOD2 (Homo sapiens, UniProt Q9HC29); experiment: MDP-stimulated (NOD2-dependent) NF-κB reporter assay; details: reporter cell lines with low and overexpressed NOD2
NOD2 [2] = target: T1, NOD2; experiment: Subcellular fractionation of MCF-7 cells expressing tagged NOD2; details: MCF-7, 5 μM, 24 h
Description: After 24 h treatment, cytosolic and membrane subcellular fractions were isolated and analyzed (10 μg protein) by immunoblotting using antibodies specific for α-tubulin (cytosolic marker), pan-cadherin (plasma membrane marker), NOD2 (using anti-FLAG antibodies) and RIP2.
For subcellular fractionation, cytosolic fractions were obtained by extensive resuspension of cell pellets into buffer A (10 mM Hepes 7.5, 1.5 mM MgCl2, 10 mM KCl, 0.5 mM DTT and protease inhibitors). […] Immunoblotting was performed using respective antibodies. Total lysates (50-60 μg) and subcellular fractions (10 μg) were also immunoblotted after protein quantification (Bio-Rad Protein Assay).

[3] = Microsomal stability, human; assay type: in vitro ADME
[4] = target: NOD1 association with RIP2, Bid, or SGT-1 (Homo sapiens, UniProt Q9Y239); experiment: Co-immunoprecipitation of NOD1 with interacting proteins, HEK 293T; assay type: cell-based; details: over-expressing conditions, 5 μM
TLR1, 2, 4, 5, 6 and 8 = experiment: NF-κB SEAP reporter in PMA-differentiated THP.1 macrophages, TLR agonists; assay type: cell-based, human; details: 5 μM, 24 h
Description: After 24 h incubation, SLAP activity in culture supernatants was measured, expressing data as percentage relative to treatment with inducer only (indicated as 100%; mean±SEM, n=2).
Human myelomonocytic THP-1 cells containing a NF-κB/AP-1-inducible reporter gene encoding secreted alkaline phosphatase (SEAP) were employed for convenient monitoring of NF-κB activity.
THP.1-Blue™ monocytic cells (Invivogen), stably containing NF-κB-driven secreted alkaline phosphatase reporter (SEAP), were plated and further treated as indicated. Stimulation was accessed colorimetrically measuring SEAP secreted into culture supernatants (QUANTI-Blue'm, Invivogen), using SpectraMax 190 plate reader (Molecular Devices).

Plasma stability, mouse = assay type: in vitro ADME
Plasma stability, human = assay type: in vitro ADME
[5] = tested on: noncanonical NF-κB activation induced by BAFF; experiment: NF-κB luciferase in 697 pre-B leukemia cells, BAFF; details: 697 cells, 10 μM
Description: (§1) Luciferase activity was measured 24 h later (mean±SD; n=3).
(§2) Gene reporter assays: HEK293T or 697 cells containing integrated 5×NFκB-driven luciferase reporter gene were seeded into 96-well plates at 10^4 to 10^5 cells per well, and treated with respective inducers for 16 to 24 hours. […] The next day, cells were transfected with 50 ng pNF-κB-LUC (Clontech) and 5 ng Renilla luciferase gene driven by a constitutive TK promoter (pRL-TK; Promega) along with indicated plasmids. After 24 h of transfection in some experiments, cells were stimulated with various agents for 24 h or directly lysed and luciferase activities were assayed using the Dual Luciferase kit (Promega). The results for firefly luciferase activity were normalized to renilla luciferase activity. […] The mean results were obtained from triplicates.

inflammasome = experiment: IL-1β secretion ELISA in RAW264.7 cells, inflammasome activators; assay type: cell-based, mouse; details: RAW264.7, 5 μM
Description: Supernatants were collected after either 2 hrs (Salmonella infection) or 4 hrs (all others) and IL-1β levels were quantified by ELISA (mean+SD; n=3).
Many NLRs form complexes with caspase-1, creating so-called “inflammasomes” responsible for proteolytic processing of inflammatory cytokine interleukin 1-beta (IL-1β). […] (FIGS. 1D and 1G), indicating a lack of promiscuity towards other NLRs.
ELISA: For IL-8 ELISA, MCF7 cells stably expressing His6-FLAG-tagged NOD1 or NOD2 were produced by lentivirus infection. Cells were cultured up to 90% confluency. Assays were initiated using 5,000 cells per well (in 100 μl volume) of a 96-well transparent culture plate. […] Supernatants were collected into a new 96-well plate and stored at −80° C. IL-8 levels were measured using a human IL-8 ELISA (BD OptEIA™ Human IL-8 ELISA Set, BD Biosciences). For IL-1β ELISA, assays were initiated using 50,000 RAW264.7 cells per well (in 100 μl of Opti-Mem medium, Invitrogen) of a 96-well transparent culture plate. Cell treatments were performed as indicated. IL-1β levels were measured using mouse IL-1 beta ELISA Ready-Set-Go!™ Kit (E-Biosciences).

TNF-α induced NF-κB = experiment: TNF-α-induced NF-κB luciferase reporter counterscreen, HEK293T; assay type: cell-based, human
[6] = Microsomal stability, mouse; assay type: in vitro ADME
[7] = In vivo RACE assay (pharmacokinetics, IP dosing); set-up: species or system wild type mice; details: mice
Description: In vivo RACE assay data was obtained for compound 1:
in conjunction with quantitative bioanalytical analysis to test its pharmacokinetics in wild type mice. […]

[8] = tested on: Fa2N-4 immortalized human hepatocytes; experiment: Toxicity towards Fa2N-4 immortalized human hepatocytes; assay type: cell-based
TLR9 = target: T2, TLR9 (Homo sapiens, UniProt Q9NR96); experiment: NF-κB luciferase in 697 pre-B leukemia cells, TLR9 ligand CpG DNA; details: 697 cells, 10 μM
T2 sequence (Q9NR96 26-1032): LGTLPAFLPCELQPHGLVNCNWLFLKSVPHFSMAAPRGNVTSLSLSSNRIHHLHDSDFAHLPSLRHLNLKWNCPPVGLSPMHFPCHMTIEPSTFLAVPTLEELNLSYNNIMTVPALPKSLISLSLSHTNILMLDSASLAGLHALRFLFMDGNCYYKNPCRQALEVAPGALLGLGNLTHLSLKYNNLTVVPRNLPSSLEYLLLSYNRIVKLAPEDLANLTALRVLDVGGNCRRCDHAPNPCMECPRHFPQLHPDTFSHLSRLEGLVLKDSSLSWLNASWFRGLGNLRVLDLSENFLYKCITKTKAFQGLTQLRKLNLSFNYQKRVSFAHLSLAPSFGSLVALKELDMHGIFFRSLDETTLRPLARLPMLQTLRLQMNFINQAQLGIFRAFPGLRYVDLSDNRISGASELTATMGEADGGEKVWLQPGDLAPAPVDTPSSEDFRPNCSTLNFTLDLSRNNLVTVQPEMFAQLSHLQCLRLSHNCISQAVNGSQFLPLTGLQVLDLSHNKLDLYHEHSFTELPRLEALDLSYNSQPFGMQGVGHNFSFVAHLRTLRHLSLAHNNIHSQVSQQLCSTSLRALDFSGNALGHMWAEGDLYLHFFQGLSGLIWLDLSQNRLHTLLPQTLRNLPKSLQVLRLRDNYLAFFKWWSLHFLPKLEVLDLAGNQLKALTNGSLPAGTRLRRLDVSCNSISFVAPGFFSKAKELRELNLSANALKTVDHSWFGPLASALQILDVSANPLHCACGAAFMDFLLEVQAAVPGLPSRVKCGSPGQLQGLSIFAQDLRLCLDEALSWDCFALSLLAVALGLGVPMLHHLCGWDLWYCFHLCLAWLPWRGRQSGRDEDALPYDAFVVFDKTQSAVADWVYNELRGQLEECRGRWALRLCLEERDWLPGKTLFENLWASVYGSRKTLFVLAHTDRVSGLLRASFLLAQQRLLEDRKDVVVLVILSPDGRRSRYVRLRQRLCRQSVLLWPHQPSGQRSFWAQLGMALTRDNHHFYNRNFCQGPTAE
Description: as §1, §2

[9] = tested on: IKKγ/NEMO, MYD88, FLIP, CARD6, APAF1 or NLRC4 over-expression; experiment: Gene transfection NF-κB luciferase, HEK 293T; assay type: cell-based, human

T1 sequence (Q9HC29 whole entry): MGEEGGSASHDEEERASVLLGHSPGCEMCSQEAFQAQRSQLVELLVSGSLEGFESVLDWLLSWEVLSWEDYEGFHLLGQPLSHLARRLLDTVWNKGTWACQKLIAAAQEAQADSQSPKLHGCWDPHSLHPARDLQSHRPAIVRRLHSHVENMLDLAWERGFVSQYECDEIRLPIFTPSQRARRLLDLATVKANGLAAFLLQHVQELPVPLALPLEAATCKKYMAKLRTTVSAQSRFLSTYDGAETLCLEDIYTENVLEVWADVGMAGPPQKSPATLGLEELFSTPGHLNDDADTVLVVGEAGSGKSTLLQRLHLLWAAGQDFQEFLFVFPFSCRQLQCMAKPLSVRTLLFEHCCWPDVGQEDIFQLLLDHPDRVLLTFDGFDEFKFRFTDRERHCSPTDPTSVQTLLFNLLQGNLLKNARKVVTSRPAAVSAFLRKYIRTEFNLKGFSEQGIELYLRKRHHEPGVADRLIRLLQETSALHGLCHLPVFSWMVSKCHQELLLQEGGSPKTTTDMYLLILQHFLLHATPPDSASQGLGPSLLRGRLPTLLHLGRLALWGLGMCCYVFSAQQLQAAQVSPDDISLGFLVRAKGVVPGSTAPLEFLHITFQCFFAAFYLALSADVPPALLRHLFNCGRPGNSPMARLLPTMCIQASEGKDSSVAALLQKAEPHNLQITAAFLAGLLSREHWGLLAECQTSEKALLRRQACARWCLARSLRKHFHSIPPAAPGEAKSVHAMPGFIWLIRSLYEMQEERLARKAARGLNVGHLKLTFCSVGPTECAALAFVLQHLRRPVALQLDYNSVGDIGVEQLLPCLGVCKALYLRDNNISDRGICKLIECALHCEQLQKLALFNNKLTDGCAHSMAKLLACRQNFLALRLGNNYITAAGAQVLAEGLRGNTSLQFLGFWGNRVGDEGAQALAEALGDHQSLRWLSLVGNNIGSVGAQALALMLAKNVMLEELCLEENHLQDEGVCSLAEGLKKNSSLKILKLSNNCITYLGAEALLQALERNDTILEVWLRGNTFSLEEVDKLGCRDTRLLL
Sequence of NOD1 association with RIP2, Bid, or SGT-1 (Q9Y239 whole entry): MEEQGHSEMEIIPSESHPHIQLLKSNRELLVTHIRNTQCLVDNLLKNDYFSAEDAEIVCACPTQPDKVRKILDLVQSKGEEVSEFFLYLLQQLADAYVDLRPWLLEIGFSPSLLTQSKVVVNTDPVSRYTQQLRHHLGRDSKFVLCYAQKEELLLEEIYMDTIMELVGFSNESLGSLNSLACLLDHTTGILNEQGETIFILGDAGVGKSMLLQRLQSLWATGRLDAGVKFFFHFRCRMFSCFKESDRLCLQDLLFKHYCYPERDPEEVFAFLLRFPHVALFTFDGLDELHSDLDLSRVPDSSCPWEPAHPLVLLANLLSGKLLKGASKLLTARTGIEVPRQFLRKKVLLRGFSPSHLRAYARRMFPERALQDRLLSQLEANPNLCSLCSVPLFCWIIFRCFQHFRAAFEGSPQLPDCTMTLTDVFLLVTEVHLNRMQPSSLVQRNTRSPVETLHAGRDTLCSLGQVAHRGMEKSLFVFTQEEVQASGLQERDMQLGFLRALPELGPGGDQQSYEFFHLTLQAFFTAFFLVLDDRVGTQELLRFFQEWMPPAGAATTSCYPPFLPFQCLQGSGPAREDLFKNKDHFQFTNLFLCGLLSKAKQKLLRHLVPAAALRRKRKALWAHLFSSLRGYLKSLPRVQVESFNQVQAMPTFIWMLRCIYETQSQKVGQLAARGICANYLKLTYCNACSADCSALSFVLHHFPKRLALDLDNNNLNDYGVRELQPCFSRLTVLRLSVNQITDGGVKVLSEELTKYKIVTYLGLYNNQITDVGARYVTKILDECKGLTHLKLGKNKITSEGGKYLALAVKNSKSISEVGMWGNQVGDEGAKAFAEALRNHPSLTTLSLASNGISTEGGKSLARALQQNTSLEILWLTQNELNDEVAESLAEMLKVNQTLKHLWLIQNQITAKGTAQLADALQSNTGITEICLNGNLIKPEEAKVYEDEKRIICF
Sequence of NOD1 association with RIP2, Bid, or SGT-1 (O43353 whole entry partner): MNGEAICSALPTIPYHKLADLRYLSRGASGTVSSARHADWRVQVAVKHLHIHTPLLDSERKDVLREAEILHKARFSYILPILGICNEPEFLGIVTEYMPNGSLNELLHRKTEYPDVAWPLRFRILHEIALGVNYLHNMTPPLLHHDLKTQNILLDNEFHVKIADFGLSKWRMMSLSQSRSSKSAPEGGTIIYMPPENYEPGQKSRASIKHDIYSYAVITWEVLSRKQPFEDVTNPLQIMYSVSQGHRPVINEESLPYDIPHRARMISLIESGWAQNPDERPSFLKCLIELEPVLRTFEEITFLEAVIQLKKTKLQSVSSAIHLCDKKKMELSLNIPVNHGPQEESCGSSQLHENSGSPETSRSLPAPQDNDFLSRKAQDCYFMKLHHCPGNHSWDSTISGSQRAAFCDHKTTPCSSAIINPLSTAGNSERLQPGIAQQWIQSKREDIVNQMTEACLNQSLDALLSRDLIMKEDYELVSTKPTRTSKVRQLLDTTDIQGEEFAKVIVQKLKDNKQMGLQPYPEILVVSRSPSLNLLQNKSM

For `Cc1ccc(S(=O)(=O)n2c(N)nc3ccccc32)cc1` [Compound 1], the “Inhibition of MDP stimulated (NOD2-dependent) signaling” value (NOD2 [1]) was “not inhibiting”, the NOD2 compartmentalization (NOD2 [2]) was “No changes” and the “Microsomal Stability (% Remaining at 1 hr)” value ([3]; Human, 1 hr) was 41.78 % Remaining. The “Stability in microsomes (in words)” value ([3]; human) was “moderate”, the “Interference with NOD1 association with RIP2, Bid, or SGT-1” value [4] was “did not interfere” and the “Effect on NF-κB-inducible SEAP activity induced by TLR agonists” value (TLR1, 2, 4, 5, 6 and 8) was “No inhibitory effects”. For the same molecule, the Permeability (Permeability; pH 5.0) was 491 ×10⁻⁶ cm/s, the Permeability (Permeability; pH 6.2) was 562 ×10⁻⁶ cm/s and the Permeability (Permeability; pH 7.4) was 382 ×10⁻⁶ cm/s. For the same molecule, the “Permeability (in words)” value (Permeability; three pH levels) was “high”, the “Plasma Stability (% Remaining at 3 hrs)” value (Plasma stability, mouse; Mouse, 3 hrs) was 100/100 % Remaining and the “Stability in plasma (in words)” value (Plasma stability, mouse; mouse) was “high”. For the same molecule, the “Plasma Stability (% Remaining at 3 hrs)” value (Plasma stability, human; Human, 3 hrs) was 100/100 % Remaining, the “Stability in plasma (in words)” value (Plasma stability, human; human) was “high” and the “Effect on NF-κB activation induced by BAFF” value [5] was “not inhibited”. The “Effect on IL-1β secretion induced by inflammasome activators” value (inflammasome) was “did not inhibit”, the IC50 (TNF-α induced NF-κB; Homo sapiens, HEK-293T, read-out: TNF-α IC50(μM)) was over 20 µM and the “Activity on TNFα induced NF-κB (in words)” value (TNF-α induced NF-κB; reporter assay, listed as CID1088438) was “selective”. The “Microsomal Stability (% Remaining at 1 hr)” value ([6]; Mouse, 1 hr) was 0.83 % Remaining, the “Stability in microsomes (in words)” value ([6]; mouse) was “low” and the Tolerability ([7]; IP) was “well tolerated”. The “Concentration (uM) 20 min” value ([7]; IP 15 mg/kg) was 1.58 ± 0.06 µM, the “Concentration (uM) 120 min” value ([7]; IP 15 mg/kg) was 0.12 ± 0.05 µM and the “Compound exposure (in words)” value ([7]; IP 30 mg/kg and 15 mg/kg, T=20 min) was “significant compound exposure”. For the same molecule, the “Concentration (uM) 20 min” value ([7]; IP 30 mg/kg) was 5.24 ± 0.62 µM, the “Concentration (uM) 120 min” value ([7]; IP 30 mg/kg) was 0.54 ± 0.04 µM and the “Toxicity (LD50, μM)” value [8] was over 50 µM. For the same molecule, the “Toxicity (LD50, μM)” value ([8]; listed as MLS-0350096) was over 50 µM, the “Effect on NF-κB activity induced by TLR9 ligand CpG DNA” value (TLR9) was “did not inhibit” and the “Impact on NF-κB in cells over-expressing IKKγ/NEMO, MYD88, FLIP, CARD6, APAF1 or NLRC4” value [9] was “No significant impact”.
